Test results from publication PMC3254785 (2011).

Legend:
Ns H-NOX = Ns H-NOX (Nostoc sp. PCC 7120 = FACHB-418, UniProt A0ACD6B960); experiment: biochemical
[1] = molecular target: T1, soluble guanylyl cyclase (sGC) (Homo sapiens, UniProt Q02153); experiment: anaerobic; assay type: binding
T1 sequence (Q02153 1-619): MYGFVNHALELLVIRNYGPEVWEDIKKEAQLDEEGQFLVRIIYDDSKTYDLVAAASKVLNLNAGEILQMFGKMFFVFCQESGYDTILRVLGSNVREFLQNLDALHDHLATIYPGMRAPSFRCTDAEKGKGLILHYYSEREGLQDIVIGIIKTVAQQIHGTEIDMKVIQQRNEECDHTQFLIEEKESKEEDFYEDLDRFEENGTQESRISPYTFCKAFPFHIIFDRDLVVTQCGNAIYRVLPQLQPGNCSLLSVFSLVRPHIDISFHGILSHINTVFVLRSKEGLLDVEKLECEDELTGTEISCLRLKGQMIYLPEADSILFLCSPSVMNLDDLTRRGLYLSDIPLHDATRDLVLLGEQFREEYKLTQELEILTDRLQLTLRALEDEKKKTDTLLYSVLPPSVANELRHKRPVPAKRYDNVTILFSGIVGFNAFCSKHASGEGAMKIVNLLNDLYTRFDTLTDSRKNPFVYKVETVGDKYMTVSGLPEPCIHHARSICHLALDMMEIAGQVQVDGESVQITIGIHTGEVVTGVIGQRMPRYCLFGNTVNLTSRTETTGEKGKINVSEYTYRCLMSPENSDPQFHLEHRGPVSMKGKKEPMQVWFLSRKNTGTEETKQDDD
T1 sequence (Q02108 1-690 partner): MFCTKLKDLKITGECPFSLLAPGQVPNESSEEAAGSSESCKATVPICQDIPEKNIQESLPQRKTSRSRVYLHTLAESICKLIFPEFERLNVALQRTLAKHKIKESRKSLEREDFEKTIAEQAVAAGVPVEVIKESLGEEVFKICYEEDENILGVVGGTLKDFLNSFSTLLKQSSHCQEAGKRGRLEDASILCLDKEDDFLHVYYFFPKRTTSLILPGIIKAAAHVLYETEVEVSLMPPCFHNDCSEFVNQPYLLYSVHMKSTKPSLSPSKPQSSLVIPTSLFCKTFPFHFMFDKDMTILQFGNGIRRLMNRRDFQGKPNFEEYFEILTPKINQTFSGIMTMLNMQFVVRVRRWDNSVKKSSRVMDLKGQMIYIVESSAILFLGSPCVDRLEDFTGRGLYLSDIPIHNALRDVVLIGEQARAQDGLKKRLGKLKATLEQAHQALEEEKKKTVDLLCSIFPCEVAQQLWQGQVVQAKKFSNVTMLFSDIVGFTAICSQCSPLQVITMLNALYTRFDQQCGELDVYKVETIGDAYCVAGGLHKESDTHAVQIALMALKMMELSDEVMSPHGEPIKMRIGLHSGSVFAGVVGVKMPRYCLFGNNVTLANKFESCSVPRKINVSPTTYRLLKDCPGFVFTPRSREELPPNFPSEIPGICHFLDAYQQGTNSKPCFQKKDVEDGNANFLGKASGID

Ns H-NOX, sequence (A0ACD6B960 1-189): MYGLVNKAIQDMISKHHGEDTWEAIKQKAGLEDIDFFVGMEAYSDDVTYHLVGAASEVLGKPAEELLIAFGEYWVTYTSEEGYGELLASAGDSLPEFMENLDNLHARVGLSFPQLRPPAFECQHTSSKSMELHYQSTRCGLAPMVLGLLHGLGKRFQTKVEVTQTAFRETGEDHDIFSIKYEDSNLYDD

| Kd (Ns H-NOX) | Structure (SMILES) | Kd [1] |
| --- | --- | --- |
| 13 mM | O=O [O2] |  |
|  | [N]=O [NO] | 54 nM |
